# Measured values reported in patent EP1124847B1, “LHRH ANALOGUES FOR THE TREATMENT OF OSTEOPOROSIS” (Ferring B.V., priority 1998, dated 2004).
# Test: Serum calcium in the ovariectomised rat (colorimetric assay, day 28)
# Type: in vivo, Sprague Dawley rats
# Conditions: ovariectomised rats, 80µg/kg daily for 28days
# Protocol: • (a) Female adult (8 weeks old, 200-215g) Sprague Dawley rats were bilaterally ovariectomised (OVX). Animals were kept for 4 weeks […] before commencing treatment. -Purina rat chow (1.00% calcium, 0.61% phosphorous) and water were provided ad libitum. Each study consisted of 6 weight-matched groups (n = 8/group). • (b) Treatment started 4 weeks post-OVX. After 4 weeks, a baseline control OVX group was sacrificed (Group A). The remaining groups were injected once a day with vehicle (Group B), 1µg/kg body weight (Group C), 10µg/kg body weight (Group D), 100µg/kg body weight (Group E) of GnRH-II, and 80µg/kg body weight (Group F) of hPTH(1-34). • (c) All rats were weighed every fourth day and dosages adjusted for 50g increase in mean group weight. Rats were given alternate subcutaneous injections ofcalcein (30mg/kg) or tetracyclin (30mg/kg) in 2% sodium bicarbonate-saline, respectively to label mineralization surfaces on days 10, 19 and 26, following treatment with drug. Bone mineral density was assessed by dual energy x-ray absorptometry-DEXA). On day 28 serum calcium levels were determined by colorimetric assay using a commercial kit. • (d) Success of OVX was confirmed at necropsy by failure to detect ovarian tissue and by observation of marked atrophy of the uterine horns. Both legs were disarticulated at the hip. […]
substance,measurement,value
"PTH: Parathyroid hormone, hPTH(1-34), 80µg/kg comparison group (Group F) (SVSEIQLMHNLGKHLNSMERVEWLRKKLQDVHNF; Parathyroid hormone; UniProt P01270 32-65, looked up, fragment)",serum calcium,pronounced hypercalcemia
